Test results reported in patent US6562837B1, “Use of tetrahydroisoquinoline compounds for the treatment of septicemia” (Korea Institute of Science & Technology, priority 1998, dated 2003).

Legend:
[1] = tested on: thrombus formation in AVS tube; experiment: Thrombus formation in arterio-venous shunt (AVS) tube in rats; assay type: in vivo
Method: An AVS tube was prepared. For this, a scalp vein set was cut into a length of 18 cm, and each end was connected to a 18G syringe needle while a 100% cotton thread 5 cm long was fixed to the center of the tube. Rats were anesthetized with ketamine (250 mg/kg) by injection (i.m.) and underwent laparotomy. An AVS tube filled with saline was installed between the abdominal aorta and the renal vein in such a way that its one syringe needle was inserted in the abdominal aorta and the other syringe needle was inserted in the renal vein. Blood was allowed to pass through the AVS tube so as to form thrombus on the cotton thread. After circulation of blood through the AVS tube for 15 min, the thread was taken out from the AVS tube. The weight of the thrombus formed on the cotton thread was determined by weighing the thread.

[2] = tested on: acute thrombosis in the pulmonary artery; experiment: Acute thrombosis (collagen plus epinephrine i.v.) in mice, recovery from paralysis; assay type: in vivo
Method: A mixture of collagen (300:μg/kg) plus epinephrine (30:μg/kg) was injected into the tail vein of mice (ICR; […], the same mice were employed in all of the following experiments) to induce massive, acute thrombosis in the pulmonary artery. Thus, an acute thrombosis model, in which mice were paralyzed in 1-3 min after the injection and most of them died within 15 min was prepared. To investigate the effect of the compounds of Chemical Formulas 1 and 2 on the acute thrombosis, either of the compounds was orally administered to mice for 1 or 3 days. The intravenous injection of the mixture of collagen and epinephrine was conducted 1 hour after the final oral administration. An observation was taken to examine the mortality change and the recovery from the paralysis and the results are given in Tables 4 and 5, below.
Most of the mice were paralyzed within 1 min after the injection, following dilation of the pupils, difficult breathing, and convulsions. Most of the mice either died within 5 min or were subjected to paralysis for 15 min or longer. Only a few of them recovered from the paralysis.

[3] = target: α-receptor; experiment: Binding affinity to α-adrenoceptor, [3H]prazosin, rat cerebral cortical membrane
Method: For this, the cerebral cortex obtained from rats (Sprague-Dawley, 250±20 g; unless particularly mentioned, the same rats were used in the following experiments) was homogeneously mixed with a 20× buffer (50 mM Tris, 5 mM MgSO4, 1 mM EDTA, 1 mM ascorbic acid, pH 7.7) and then, centrifuged three times at 35,000×g for 15 min and the pellet was stored at −70° C. A solution of 5 mg of the pellet in 1 ml of the buffer was incubated, along with [^3H]prazosin (200 pM) and samples, at 25° C. for 30 min followed by adding 10 ml of a buffer (50 mM Tris, pH 7.7) to quench the binding reaction. The resulting solution was filtered through a Whatman GF/C glass microfiber filter which was then shaken for 2 hours while being completely submerged in a scintillation cocktail. The radioactivity was measured using a scintillation counter (Beckman, LS6500)

Compound	% Inhibition of thrombus formation ([1]; 50 mg/kg orally once a day for successive three days) [%]	Weight (mg) of thrombus ([1]; 50 mg/kg orally once a day for successive three days, control 42.67 ± 5.381) [mg]	% Inhibition of thrombus formation ([1]; 50 mg/kg orally once, first series, control 33.61 mg) [%]	Weights (mg) of thrombus ([1]; 50 mg/kg orally once, first series, control 33.61 ± 7.620) [mg]	% Inhibition of thrombus formation ([1]; 50 mg/kg orally once, second series, control 39.54 mg) [%]	Weights (mg) of thrombus ([1]; 50 mg/kg orally once, second series, control 39.54 ± 5.625) [mg]	Mice Recovered, Number ([2]; 50 mg/kg orally once for three successive days, recovered within 15 min)	Mice Recovered, % ([2]; 50 mg/kg orally once for three successive days, recovered within 15 min, control 20%) [%]	Mice Recovered, Number ([2]; 50 mg/kg orally once, recovered from thrombotic paralysis within 15 min)	Mice Recovered, % ([2]; 50 mg/kg orally once, recovered within 15 min, control 17%) [%]	Kd [3] [nM]
CC(=O)Oc1ccccc1C(=O)O [Aspirin, reference compound]	12.4	37.37 ± 7.369	40.8	19.89 ± 7.213	36.3	25.18 ± 6.725	11	55	32	52	
COc1cc2nc(N3CCN(C(=O)c4ccco4)CC3)nc(N)c2cc1OC [prazosin, reference compound]											0.134 ± 0.00891
